As a reminder, the IC50 is the concentration at which inhibition is half-maximal. A low value points to greater potency in that assay.

Molecules are shown by their SMILES.

The target in the assay is Human eIF4E (aa 28-217) / biotin labeled 4G2 peptide (Homo sapiens (Human), UniProt P06730). As to the kind of experiment: Human eIF4E/4G2 binding assay (TR-FRET). The following applies: Human eIF4E/4G2 TR-FRET binding assay; head says IC50, legend says EC50. The method, boiled down: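 Refolded His-tagged human eIF4E (aa 28-217), 82.5 nM working stock, preincubated 4 h at RT with compounds (10-point 2-fold series) in NaPi pH 6.5 buffer with DTT and gamma globulin. Biotin-4G2 peptide then added for 20 min, followed by Eu-streptavidin/APC-anti-His for 20 min; TR-FRET 665/615 nm ratio normalized, IC50 fitted.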
Chain of Human eIF4E (aa 28-217) / biotin labeled 4G2 peptide (P06730 28-217): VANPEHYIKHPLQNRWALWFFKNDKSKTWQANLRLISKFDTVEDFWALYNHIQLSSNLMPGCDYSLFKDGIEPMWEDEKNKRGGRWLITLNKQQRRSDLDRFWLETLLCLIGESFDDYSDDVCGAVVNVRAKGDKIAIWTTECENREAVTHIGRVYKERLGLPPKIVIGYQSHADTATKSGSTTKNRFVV
For orientation: Time-resolved FRET reads energy transfer from a long-lived donor to a nearby acceptor.
For `CC(C)Cc1sc(N(CCC(=O)O)CCN(C)C)nc1-c1ccc(Cl)c(Cl)c1` [I-72], the IC50 is greater than 10 µM. In the case of `CC(C)Cc1sc(Nc2ccc(-c3ccccc3)cc2C(=O)O)nc1-c1ccc(Cl)c(Cl)c1` [I-235], the IC50 is no more than 1 µM. Regarding `Cc1cc(CC(CNc2nc(-c3ccc(Cl)c(Cl)c3)c(CC(C)C)s2)C(=O)O)ccn1` (stereo not shown) [I-151], the IC50 was 1 to 10 µM. As to `CC(=O)NS(=O)(=O)CCN(Cc1ccccc1)c1nc(-c2ccc(Cl)c(Cl)c2)c(CC(C)C)s1` [I-99, N-(2-(benzyl(4-(3,4-dichlorophenyl)-5-isobutylthiazol-2-yl)amino)ethylsulfonyl)acetamide], the IC50 was 1 to 10 µM. The same measure for `CC(C)Cc1sc(NCC(C(=O)O)N(C)C)nc1-c1ccc(Cl)c(Cl)c1` (stereo not shown) [I-116, 3-(4-(3,4-dichlorophenyl)-5-isobutylthiazol-2-ylamino)-2-(dimethylamino)propanoic acid]: greater than 10 µM. The same measure for `Cc1cc(Nc2nc(-c3ccc(Cl)c(Cl)c3)c(CC(C)C)s2)cc(C(=O)O)c1` [I-214]: 1 to 10 µM; for `CC(C)Cc1sc(N(CCC(=O)O)C(=O)c2ccccc2)nc1-c1ccc(Cl)c(Cl)c1` [I-144]: 1 to 10 µM.

`CC(C)Cc1sc(N(CCC(=O)O)CC2CCCO2)nc1-c1ccc(Cl)c(Cl)c1` (stereo not shown) [I-69] came in with an IC50 of 1 to 10 µM. Regarding `CNC(=O)CCN(Cc1ccccc1)c1nc(-c2ccc(Cl)c(Cl)c2)c(CC(C)C)s1` [I-200, 3-(benzyl(4-(3,4-dichlorophenyl)-5-isobutylthiazol-2-yl)amino)-N-methylpropanamide], the IC50 is greater than 10 µM. For the molecule `CC(C)Cc1sc(N(CCC(=O)NCCN)Cc2ccccc2)nc1-c1ccc(Cl)c(Cl)c1` [I-131, N-(2-aminoethyl)-3-(benzyl(4-(3,4-dichlorophenyl)-5-isobutylthiazol-2-yl)amino)propanamide], the IC50 was 1 to 10 µM. The same measure for `CC(C)c1sc(NCC(Cc2cccc(O)c2)C(=O)O)nc1-c1ccc(Cl)cc1` (stereo not shown) [I-41]: 1 to 10 µM; for `CC(C)Cc1sc(N2CCN(C(=O)c3cccnc3)C(C(=O)O)C2)nc1-c1ccc(Cl)c(Cl)c1` (stereo not shown) [I-250]: 1 to 10 µM.

Regarding `CC(C)Cc1sc(N(CCC(=O)NCCCN)Cc2ccccc2)nc1-c1ccc(Cl)c(Cl)c1` [I-192], the IC50 was 1 to 10 µM. `COc1cccc(-c2nc(NCC(Cc3cccc4c3OCO4)C(=O)O)sc2C(C)C)c1` (stereo not shown) [I-29]: the IC50 is 1 to 10 µM. For the molecule `CC(C)CCc1sc(NCC(Cc2ccccc2)C(=O)O)nc1-c1ccc(Cl)c(Cl)c1` (stereo not shown) [I-180], the IC50 is no more than 1 µM. With `COc1cccc(-c2nc(NCC(Cc3cccc4cc[nH]c34)C(=O)O)sc2C(C)C)c1` (stereo not shown) [I-34], the IC50 was 1 to 10 µM. Molecule `O=Cc1sc(N(CCC(=O)O)Cc2ccccc2)nc1-c1ccc(Cl)c(Cl)c1` [I-119, 3-(benzyl(4-(3,4-dichlorophenyl)-5-formylthiazol-2-yl)amino)propanoic acid] displayed an IC50 of 1 to 10 µM. `CC(C)c1sc(Nc2cc(-c3ccccc3)sc2C(=O)O)nc1-c1ccc(Cl)c(Cl)c1` [I-278] registered an IC50 of no more than 1 µM. In turn, `Cc1cc(CC(CNc2nc(-c3ccc(Cl)c(Cl)c3)c(CC(C)C)s2)C(=O)O)cc(C)n1` (stereo not shown) [I-150] came in with a half-inhibitory concentration (IC50) of 1 to 10 µM.

`CC(C)Cc1sc(-c2cccc(C(=O)O)c2)nc1-c1ccc(Cl)c(Cl)c1` [I-203, 3-(4-(3,4-dichlorophenyl)-5-isobutylthiazol-2-yl)benzoic acid] yielded an IC50 of 1 to 10 µM. As for `CSc1cccc(CC(CNc2nc(-c3ccc(Cl)c(Cl)c3)c(CC(C)C)s2)C(=O)O)c1` (stereo not shown) [I-171], the IC50 was no more than 1 µM. In the case of `CC(C)c1sc(N(CCC(=O)O)Cc2ccccc2)nc1-c1ccc(Cl)c(Cl)c1` [I-74], the IC50 was no more than 1 µM. The same measure for `CC(C)Cc1sc(-c2cccc(C(=O)O)n2)nc1-c1ccc(Cl)c(Cl)c1` [I-228, 6-(4-(3,4-dichlorophenyl)-5-isobutylthiazol-2-yl)picolinic acid]: 1 to 10 µM; for `CC(C)c1sc(Nc2ccsc2C(=O)NCCN)nc1-c1ccc(Cl)c(Cl)c1` [I-277]: 1 to 10 µM; for `CC(C)c1sc(Nc2ncc(-c3cccc(F)c3)cc2C(=O)O)nc1-c1ccc(Cl)c(Cl)c1` [I-266]: no more than 1 µM.

For the origin of these results see patent US11753403B2, “EIF4E inhibitors and uses thereof” (PIC Therapeutics, Inc., priority 2020, dated 2023).
